Measured values from patent US11746115B2, “Solid forms of 7-[[(1S)-1-[4-[(1S)-2-cyclopropyl-1-(4-prop-2-enoylpiperazin-1-yl)ethyl]phenyl]ethyl]amino]-1-ethyl-4H-pyrimido[4,5-d][1,3]oxazin-2-one” (Eli Lilly and Company, priority 2021, dated 2023).

Assays:
[1] = Non-sink dissolution (microcentrifuge assay, pH 2 then FaSSIF pH 6.5); assay type: physicochemical; settings: after FaSSIF pH 6.5 transfer
Method: Non-sink dissolution is performed by adding the test composition to a solution of 0.01 N HCl pH 2 (e.g., in a centrifuge tube) and analyzing for 7-[[(1S)-1-[4-[(1S)-2-cyclopropyl-1-(4-prop-2-enoylpiperazin-1-yl)ethyl]phenyl]ethyl]amino]-1-ethyl-4H-pyrimido[4,5-d][1,3]oxazin-2-one solution concentration, by HPLC, at approximately time zero, 20 and 40 minutes. After approximately 40 minutes, a solution of fasted state simulated intestinal fluid (FaSSIF) pH 6.5, with 0.224 wt % bile salts, is added to the pH 2 solution. The 7-[[(1S)-1-[4-[(1S)-2-cyclopropyl-1-(4-prop-2-enoylpiperazin-1-yl)ethyl]phenyl]ethyl]amino]-1-ethyl-4H-pyrimido[4,5-d][1,3]oxazin-2-one concentration is monitored, by HPLC, at approximately 50, 70, 90 and 120 minutes after time zero. At each timepoint the samples are centrifuged at 18,500 g-force for 3 minutes to remove undissolved solids from the sample. For analysis, a supernatant sample (100 μL) is diluted 5× using 1:1 acetonitrile/H2O and analyzed. The non-sink dissolution test is completed at room temperature.

[2] = Preclinical solubility studies of Compound A; assay type: physicochemical; settings: certain preclinical studies

Compound: C=CC(=O)N1CCN([C@@H](CC2CC2)c2ccc([C@H](C)Nc3ncc4c(n3)N(CC)C(=O)OC4)cc2)CC1 [TC2, 7-[[(1S)-1-[4-[(1S)-2-cyclopropyl-1-(4-prop-2-enoylpiperazin-1-yl)ethyl]phenyl]ethyl]amino]-1-ethyl-4H-pyrimido[4,5-d][1,3]oxazin-2-one, 2,5-dihydroxybenzoic acid (1:2)]
- solution concentration at the 70 minute timepoint at elevated pH as compared to TC1 [1]: increased solution concentration

Compound: C=CC(=O)N1CCN([C@@H](CC2CC2)c2ccc([C@H](C)Nc3ncc4c(n3)N(CC)C(=O)OC4)cc2)CC1 [TC1, 7-[[(1S)-1-[4-[(1S)-2-cyclopropyl-1-(4-prop-2-enoylpiperazin-1-yl)ethyl]phenyl]ethyl]amino]-1-ethyl-4H-pyrimido[4,5-d][1,3]oxazin-2-one]
- solubility, acidic versus neutral environment [2]: more soluble in an acidic environment than a neutral one
